The test system of the assay is cultured human mast cells (CHMC), IgE-induced degranulation. The assay is described as follows: CHMC low cell density IgE activation: tryptase assay. Format: cell-based. Conditions: low cell density CHMC. An outline of the steps: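 Tryptase release read fluorogenically (30 min, room temperature) from supernatants of anti-IgE-challenged cultured human mucosal mast cells derived from umbilical cord CD34+ cells, at low density of 1000–1500 cells/well.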

Where [1] appears, read: 8-point, read-out: LD Tryptase, CHMC, IgE, 8pt.
The mark [2] stands for this setting: 3-point, read-out: LD Tryptase, CHMC, IgE, 3pt.

Read-outs that look alike come from different tables or passages of the source.

Take `COc1c(C)cc(Nc2ncc(F)c(Nc3ccc4c(n3)NC(=O)CO4)n2)cc1C` [Compound 1059, N2-(3,5-Dimethyl-4-methoxyphenyl)-5-fluoro-N4-(3-oxo-2H,4H-5-pyrid[1,4]oxazin-6-yl)-2,4-pyrimidinediamine]: the IC50 under setting [1] is less than 10 µM.

In the case of `COc1cccc(Nc2ncc(F)c(Nc3ccc4c(n3)NC(=O)CO4)n2)c1C` [Compound 1061, 5-Fluoro-N2-(3-methoxy-2-methylphenyl)-N4-(3-oxo-2H,4H-5-pyrid[1,4]oxazin-6-yl)-2,4-pyrimidinediamine], the IC50 under setting [1] was less than 10 µM.

In the case of `Cc1c(O)cccc1Nc1ncc(F)c(Nc2ccc3c(n2)NC(=O)CO3)n1` [Compound 1063, 5-Fluoro-N2-(3-hydroxy-2-methylphenyl)-N4-(3-oxo-2H,4H-5-pyrid[1,4]oxazin-6-yl)-2,4-pyrimidinediamine], the IC50 under setting [1] is less than 10 µM.

For the compound `Cc1c(O)cccc1Nc1ncc(F)c(Nc2ccc3c(n2)NC(=O)C(C)(C)O3)n1` [Compound 1064, N4-(2,2-Dimethyl-3-oxo-4H-5-pyrid[1,4]oxazin-6-yl)-5-fluoro-N2-(3-hydroxy-2-methylphenyl)-2,4-pyrimidinediamine], the IC50 under setting [1] was less than 10 µM.

For `COc1cccc(Nc2ncc(F)c(Nc3ccc4c(n3)NC(=O)C(C)(C)O4)n2)c1C` [Compound 1065, N4-(2,2-Dimethyl-3-oxo-4H-5-pyrid[1,4]oxazin-6-yl)-5-fluoro-N2-(3-methoxy-2-methylphenyl)-2,4-pyrimidinediamine], the IC50 under setting [2] is less than 10 µM.

On to `COC(=O)COc1cccc(Nc2ncc(F)c(Nc3ccc4c(c3)NC(=O)C(C)(C)O4)n2)c1C` [Compound 1066, N4-(2,2-Dimethyl-3-oxo-4H-benz[1,4]oxazin-6-yl)-5-fluoro-N2-[3-methoxycarbonylmethyleneoxy-2-methylphenyl]-2,4-pyrimidinediamine], for which the IC50 under setting [2] is less than 10 µM.

For `CNC(=O)COc1cccc(Nc2ncc(F)c(Nc3ccc4c(c3)NC(=O)C(C)(C)O4)n2)c1C` [Compound 1067, N4-(2,2-Dimethyl-3-oxo-4H-benz[1,4]oxazin-6-yl)-5-fluoro-N2-[2-methyl-3-(N-methylamino)carbonylmethyleneoxyphenyl]-2,4-pyrimidinediamine], under setting [1], the IC50 is less than 10 µM.

For `CNC(=O)COc1cccc(Nc2ncc(F)c(Nc3ccc4c(n3)NC(=O)CO4)n2)c1C` [Compound 1068, 5-Fluoro-N2-[2-methyl-3-(N-methylamino)carbonylmethyleneoxyphenyl]-N4-(3-oxo-2H,4H-5-pyrid[1,4]oxazin-6-yl)-2,4-pyrimidinediamine], under setting [1], the IC50 is less than 10 µM.

On to `Cc1cc(Nc2ncc(F)c(Nc3ccc4c(n3)NC(=O)CO4)n2)cc(C)c1O` [Compound 1069, N2-(3,5-Dimethyl-4-hydroxyphenyl)-5-fluoro-N4-(3-oxo-2H,4H-5-pyrid[1,4]oxazin-6-yl)-2,4-pyrimidinediamine], for which the IC50 under setting [1] is less than 10 µM.

Regarding `CCOC(=O)N1CCN(c2cccc(Nc3ncc(F)c(Nc4ccc5c(n4)NC(=O)CO5)n3)c2)CC1` [Compound 1070, N2-[3-(4-Ethoxycarbonylpiperazino)phenyl]-5-fluoro-N4-(3-oxo-2H,4H-5-pyrid[1,4]oxazin-6-yl)-2,4-pyrimidinediamine], the IC50 under setting [1] was less than 10 µM.

As for `CC(=O)N1CCN(c2cccc(Nc3ncc(F)c(Nc4ccc5c(n4)NC(=O)CO5)n3)c2)CC1` [Compound 1071, N2-[3-(4-Acetylpiperazino)phenyl]-5-fluoro-N4-(3-oxo-2H,4H-5-pyrid[1,4]oxazin-6-yl)-2,4-pyrimidinediamine], the IC50 under setting [1] is less than 10 µM.

For `CCOC(=O)N1CCN(c2ccc(Nc3ncc(F)c(Nc4ccc5c(n4)NC(=O)CO5)n3)cc2)CC1` [Compound 1072, N2-[4-(4-Ethoxycarbonylpiperazino)phenyl]-5-fluoro-N4-(3-oxo-2H,4H-5-pyrid[1,4]oxazin-6-yl)-2,4-pyrimidinediamine], the IC50 under setting [1] is less than 10 µM.

As for `O=C1COc2ccc(Nc3nc(Nc4cccc(N5CCOCC5)c4)ncc3F)nc2N1` [Compound 1073, 5-Fluoro-N2-(3-morpholinophenyl)-N4-(3-oxo-2H,4H-5-pyrid[1,4]oxazin-6-yl)-2,4-pyrimidinediamine], under setting [1], the IC50 is less than 10 µM.

Turning to `CN1CCN(c2cccc(Nc3ncc(F)c(Nc4ccc5c(n4)NC(=O)CO5)n3)c2)CC1` [Compound 1074, 5-Fluoro-N2-[3-(4-methylpiperazion)phenyl]-N4-(3-oxo-2H,4H-5-pyrid[1,4]oxazin-6-yl)-2,4-pyrimidinediamine], the IC50 under setting [1] was less than 10 µM.

In the case of `CCOC(=O)N1CCN(c2cccc(Nc3ncc(F)c(Nc4ccc5c(n4)NC(=O)C(C)(C)O5)n3)c2)CC1` [Compound 1075, N4-(2,2-Dimethyl-3-oxo-4H-5-pyrid[1,4]oxazin-6-yl)-N2-[3-(4-ethoxycarbonylpiperazino)phenyl]-5-fluoro-2,4-pyrimidinediamine], under setting [1], the IC50 was less than 10 µM.

With `CC(=O)N1CCN(c2cccc(Nc3ncc(F)c(Nc4ccc5c(n4)NC(=O)C(C)(C)O5)n3)c2)CC1` [Compound 1076, N2-[3-(4-Acetylpiperazino)phenyl]-N4-(2,2-dimethyl-3-oxo-4H-5-pyrid[1,4]oxazin-6-yl)-5-fluoro-2,4-pyrimidinediamine], the IC50 under setting [1] is less than 10 µM.

As to `CCOC(=O)N1CCN(c2ccc(Nc3ncc(F)c(Nc4ccc5c(n4)NC(=O)C(C)(C)O5)n3)cc2)CC1` [Compound 1077, N4-(2,2-Dimethyl-3-oxo-4H-5-pyrid [1,4]oxazin-6-yl)-N2-[4-(4-ethoxycarbonylpiperazino)phenyl]-5-fluoro-2,4-pyrimidinediamine], the IC50 under setting [1] was less than 10 µM.

`CC1(C)Oc2ccc(Nc3nc(Nc4cccc(N5CCOCC5)c4)ncc3F)nc2NC1=O` [Compound 1078, N4-(2,2-Dimethyl-3-oxo-4H-5-pyrid[1,4]oxazin-6-yl)-5-fluoro-N2-(3-morpholinophenyl)-2,4-pyrimidinediamine]: the IC50 under setting [1] was less than 10 µM.

For `CNC(=O)COc1cccc(Nc2ncc(F)c(Nc3ccc4c(n3)NC(=O)C(C)(C)O4)n2)c1C` [Compound 1079, N4-(2,2-Dimethyl-3-oxo-4H-5-pyrid [1,4]oxazin-6-yl)-5-fluoro-N2-[2-methyl-3-(N-methylamino)carbonylmethyleneoxyphenyl]-2,4-pyrimidinediamine], the IC50 under setting [1] was less than 10 µM.

As to `CN1CCN(c2cccc(Nc3ncc(F)c(Nc4ccc5c(n4)NC(=O)C(C)(C)O5)n3)c2)CC1` [Compound 1080, N4-(2,2-Dimethyl-3-oxo-4H-5-pyrid [1,4]oxazin-6-yl)-5-fluoro-N2-[3-(4-methylpiperazino)phenyl]-2,4-pyrimidinediamine], under setting [1], the IC50 was less than 10 µM.

Regarding `COc1ccc(Nc2ncc(F)c(Nc3ccc4c(n3)NC(=O)[C@H](C)O4)n2)cc1Cl` [Compound 1081, (S)—N2-(3-Chloro-4-methoxyphenyl)-5-fluoro-N4-(2-methyl-3-oxo-2H,4H-5-pyrid[1,4]oxazin-6-yl)-2,4-pyrimidinediamine], the IC50 under setting [2] was less than 10 µM and the IC50 under setting [1] was less than 10 µM.

Consider `COc1cc(Nc2ncc(F)c(Nc3ccc4c(n3)NC(=O)[C@H](C)O4)n2)cc(OC)c1OC` [Compound 1082, (S)-5-Fluoro-N4-(2-methyl-3-oxo-2H,4H-5-pyrid[1,4]oxazin-6-yl)-N2-(3,4,5-trimethoxyphenyl)-2,4-pyrimidinediamine], for which the IC50 by setting is: under setting [2], less than 10 µM; under setting [1], less than 10 µM.

The values are drawn from patent publication US7560466B2, “Methods of treating or preventing autoimmune diseases with 2,4-pyrimidinediamine compounds” (Rigel Pharmaceuticals, Inc., priority 2003, dated 2009).
